Earlier results as cited in patent US20150119339A1, “USE OF HMB TO IMPROVE HEALTH OUTCOMES FOR HOSPITALIZED PATIENTS” (ABBOTT LABORATORIES, priority 2012, published 2015).

Details: three grams of HMB; older (70±1 yr) men and women; 10 days voluntary bed rest; not statistically different

CC(C)(O)CC(=O)O [HMB, 3-hydroxy-3-methylbutanoic acid]
loss of lean body mass: less loss of lean body mass
